This is an account of results in patent US20260167623A1 (NIKANG THERAPEUTICS, INC., priority 2022, published 2026).

The target in the experiment is T1, CDK2 (Homo sapiens, UniProt P24941).
T1 construct: High-Throughput Measurement of Cellular Endogenous CDK2; endogenous in cells; host or cells: OVCAR3
The experiment is described as follows: Inhibition of CDK2: phospho-Rb (S807/811) HTRF measurement in OVCAR3 cells, 24 h. The class given is cell-based. The note with it: 24 h compound treatment, read-out: pRB_OVCAR3_24h. The protocol: Inhibition of CDK2: Phospho-R^b Measurement in Cells
Phosphorylation of RB protein at S807/811 were measured using HTRF phospho-RB cellular kits (Cat #64RBS807PEG) from Cisbio.
On Day 1, OVCAR3 (CDK2 dependent cell line) cells were seeded into 96-well tissue-culture treated plates at 20,000 cells/well in 200 μL and incubated overnight at 37° C. in CO2 atmosphere. On Day 2, the cells were treated with test compounds at concentrations from 0.3 to 10,000 nM using HP D300 digital dispenser. Twenty-four hours after compound treatment, cell culture media is removed by flicking the plate and tapping the plate against clean paper towel. 30 μL 1× lysis buffer was supplemented from the kit was added to each well and the plate was incubated at room temperature on shaker for 30 min. After homogenization by pipetting up and down, 8 μL cell lysate from 96-well cell culture plate was transferred to 384-well small volume white detection plate. 2 μL premixed detection solution was added and the plate was covered with sealer. To prepare the detection solution, d2 conjugated-phospho-RB antibody and Eu-cryptate conjugated phosphor-RB antibody were diluted into detection buffer following manufacturer's instruction. Detection plates were incubated for 4 h at room temperature and read on ClarioStar (BMG Labtech) in TR-FRET mode (665 nM and 620 nM). The TR-FRET ratio (665 nM/620 nM) was plotted against the compound concentration and normalized to DMSO controls. Half maximal inhibition concentration (IC50) values were calculated with a four-parameter logistic fit using GraphPad Prism (version 8; La Jolla, CA).
For the compound `Cn1nc(N2CCC(=O)NC2=O)c2ccc(C3CCN(CC4CCN(c5cc(C#N)cc(S(=O)(=O)N6CCC(Nc7ncc(Cl)cn7)CC6)c5)CC4)CC3)cc21` [Example 160, 3-((4-((5-chloropyrimidin-2-yl)amino)piperidin-1-yl)sulfonyl)-5-(4-((4-(3-(2,4-dioxotetrahydropyrimidin-1(2H)-yl)-1-methyl-1H-indazol-6-yl)piperidin-1-yl)methyl)piperidin-1-yl)benzonitrile 2,2,2-trifluoroacetate], the IC50 lay within 100 to 500 nM.

In the case of `Cn1nc(N2CCC(=O)NC2=O)c2ccc(C3CCN(C[C@H]4CCCN4c4cc(S(=O)(=O)N5CCC(Nc6ncc(OC(F)F)cn6)CC5)ccc4C#N)CC3)cc21` [Example 255, (R)-4-((4-((5-(difluoromethoxy)pyrimidin-2-yl)amino)piperidin-1-yl)sulfonyl)-2-(2-((4-(3-(2,4-dioxotetrahydropyrimidin-1(2H)-yl)-1-methyl-1H-indazol-6-yl)piperidin-1-yl)methyl)pyrrolidin-1-yl)benzonitrile], the IC50 was 100 to 500 nM.

Regarding `O=C1CCC(NC(=O)c2ccc(C3CCN(CC4CCN(c5cccc(S(=O)(=O)N6CCC(Nc7ncc(Cl)cn7)CC6)c5)CC4)CC3)cc2F)C(=O)N1` (stereo not drawn) [Example 237, 4-(1-((1-(3-((4-((5-chloropyrimidin-2-yl)amino)piperidin-1-yl)sulfonyl)phenyl)piperidin-4-yl)methyl)piperidin-4-yl)-N-(2,6-dioxopiperidin-3-yl)-2-fluorobenzamide], the IC50 was in the range of 500 to 2500 nM.

Regarding `O=C1CCN(c2ccc(N3CCN(CC4CCN(c5cccc(S(=O)(=O)N6CCC(Nc7ncc(C(F)(F)F)cn7)CC6)c5)CC4)CC3)cc2)C(=O)N1` [Example 113, 1-(4-(4-((1-(3-((4-((5-(trifluoromethyl)-pyrimidin-2-yl)amino)piperidin-1-yl)sulfonyl)phenyl)piperidin-4-yl)methyl)piperazin-1-yl)phenyl)-dihydropyrimidine-2,4(1H,3H)-dione], the IC50 is 100 to 500 nM.

In the case of `O=C1CCC(N2C(=O)c3cc(F)c(N4CCN(CC5CCN(c6cccc(S(=O)(=O)N7CCC(Nc8ncc(Cl)cn8)CC7)c6)CC5)CC4)cc3C2=O)C(=O)N1` (stereo not drawn) [Example 79, 5-(4-((1-(3-((4-((5-chloropyrimidin-2-yl)amino)piperidin-1-yl)sulfonyl)phenyl)-piperidin-4-yl)methyl)piperazin-1-yl)-2-(2,6-dioxopiperidin-3-yl)-6-fluoroisoindoline-1,3-dione], the IC50 lay within 500 to 2500 nM.

`Cn1nc(N2CCC(=O)NC2=O)c2ccc(N3CCN(Cc4cccc(S(=O)(=O)N5CCC(Nc6ncc(Cl)cn6)CC5)c4)CC3)cc21` [Example 25, 1-(6-(4-(3-((4-((5-chloropyrimidin-2-yl)amino)piperidin-1-yl)sulfonyl)benzyl)-piperazin-1-yl)-1-methyl-1H-indazol-3-yl)dihydropyrimidine-2,4(1H,3H)-dione]: the IC50 lay in the range of 100 to 500 nM.

Turning to `Cn1nc(N2CCC(=O)NC2=O)c2ccc(C3CCN(Cc4cc(S(=O)(=O)N5CCC(Nc6ncc(OC(F)F)cn6)CC5)ccc4C#N)CC3)cc21` [Example 169, 4-((4-((5-(difluoromethoxy)pyrimidin-2-yl)amino)piperidin-1-yl)sulfonyl)-2-((4-(3-(2,4-dioxotetrahydropyrimidin-1(2H)-yl)-1-methyl-1H-indazol-6-yl)piperidin-1-yl)methyl)benzonitrile], the IC50 fell in the range of 100 to 500 nM.

Regarding `Cn1nc(N2CCC(=O)NC2=O)c2ccc(C3CN(Cc4cccc(S(=O)(=O)N5CCC(Nc6ncc(Cl)cn6)CC5)c4)C3)cc21` [Example 56, 1-(6-(1-(3-((4-((5-chloropyrimidin-2-yl)amino)piperidin-1-yl)sulfonyl)benzyl)-azetidin-3-yl)-1-methyl-1H-indazol-3-yl)dihydropyrimidine-2,4(1H,3H)-dione], the IC50 fell in the range of 500 to 2500 nM.

Regarding `CN(Cc1cccc(S(=O)(=O)N2CCC(Nc3ncc(C(F)(F)F)cn3)CC2)c1)CC1CCN(c2ccc3c(N4CCC(=O)NC4=O)nn(C)c3c2)CC1` [Example 88, 1-(1-methyl-6-(4-((methyl(3-((4-((5-(trifluoromethyl)pyrimidin-2-yl)amino)-piperidin-1-yl)sulfonyl)benzyl)amino)-methyl)piperidin-1-yl)-1H-indazol-3-yl)dihydropyrimidine-2,4(1H,3H)-dione], the IC50 lay in the range of 500 to 2500 nM.

With `O=C1CCN(c2cccc(C3CCN(CC4CCN(c5cccc(S(=O)(=O)N6CCC(Nc7ncc(Cl)cn7)CC6)c5)CC4)CC3)c2)C(=O)N1` [Example 182, 1-(3-(1-((1-(3-((4-((5-chloropyrimidin-2-yl)amino)piperidin-1-yl)sulfonyl)phenyl)piperidin-4-yl)methyl)piperidin-4-yl)phenyl) dihydropyrimidine-2,4(1H,3H)-dione], the IC50 was in the range of 100 to 500 nM.

For `Cn1nc(N2CCC(=O)NC2=O)c2ncc(C3CCN(CC4CCN(c5cccc(S(=O)(=O)N6CCC(Nc7ncc(Cl)cn7)CC6)c5)CC4)CC3)cc21` [Example 215], the IC50 lay within 500 to 2500 nM.

For `Cn1nc(N2CCC(=O)NC2=O)c2ccc(C3CCN(Cc4ccc(-c5cccc(S(=O)(=O)N6CCC(Nc7ncc(Cl)cn7)CC6)c5)cc4)CC3)cc21` [Example 122], the IC50 fell in the range of 1 to 100 nM.

In the case of `Cn1nc(N2CCC(=O)NC2=O)c2ccc(C3CCN(C[C@H]4CCCN(c5cccc(S(=O)(=O)N6CCC(Nc7ncc(OC(F)F)cn7)CC6)c5)C4)CC3)cc21` [Example 258, (R)-1-(6-(1-((1-(3-((4-((5-(difluoromethoxy)pyrimidin-2-yl)amino)piperidin-1-yl)sulfonyl)phenyl)piperidin-3-yl)methyl)piperidin-4-yl)-1-methyl-1H-indazol-3-yl)dihydropyrimidine-2,4(1H,3H)-dione], the IC50 lay in the range of 100 to 500 nM.

For the compound `Cn1nc(N2CCC(=O)NC2=O)c2ccc(C3CCN(CC4CCN(c5cccc(S(=O)(=O)[C@H]6CC[C@H](Nc7ncc(C(F)(F)F)cn7)CC6)c5)CC4)CC3)cc21` [Example 240], the IC50 was > 2500 nM.

Turning to `Cn1nc(N2CCC(=O)NC2=O)c2ccc(C3CCN(CCOc4cccc(S(=O)(=O)N5CCC(Nc6ncc(C(F)(F)F)cn6)CC5)c4)CC3)cc21` [Example 123, 1-(1-methyl-6-(1-(2-(3-((4-((5-(trifluoro-methyl)pyrimidin-2-yl)amino)piperidin-1-yl)sulfonyl)phenoxy)ethyl)piperidin-4-yl)-1H-indazol-3-yl)dihydropyrimidine-2,4(1H,3H)-dione], the IC50 is 1 to 100 nM.

For the compound `O=C1CCC(N2Cc3cc(N4CCC(Oc5cccc(S(=O)(=O)N6CCC(Nc7ncc(C(F)(F)F)cn7)CC6)c5)CC4)ccc3C2=O)C(=O)N1` (stereo not drawn) [Example 41, 3-(1-ox0-5-(4-(3-((4-((5-(trifluoromethyl)-pyrimidin-2-yl)amino)piperidin-1-yl)sulfonyl)phenoxy)piperidin-1-yl)isoindolin-2-yl)piperidine-2,6-dione], the IC50 is 100 to 500 nM.

On to `Cn1nc(N2CCC(=O)NC2=O)c2ccc(CCCN3CCN(c4cccc(S(=O)(=O)N5CCC(Nc6ncc(C(F)(F)F)cn6)CC5)c4)CC3)cc21` [Example 235, 1-(1-methyl-6-(3-(4-(3-((4-((5-(trifluoromethyl)pyrimidin-2-yl)amino)piperidin-1-yl)sulfonyl)phenyl)piperazin-1-yl)propyl)-1H-indazol-3-yl)dihydropyrimidine-2,4(1H,3H)-dione], for which the IC50 was 100 to 500 nM.

As to `CC(Cc1cccc(S(=O)(=O)N2CCC(Nc3ncc(Cl)cn3)CC2)c1)CN1CCN(c2cc3c(cc2F)C(=O)N(C2CCC(=O)NC2=O)C3)CC1` (stereo not drawn) [Example 97, 3-(5-(4-(3-(3-((4-((5-chloropyrimidin-2-yl)amino)piperidin-1-yl)sulfonyl)phenyl)-2-methylpropyl)piperazin-1-yl)-6-fluoro-1-oxoisoindolin-2-yl)piperidine-2,6-dione], the IC50 fell in the range of 500 to 2500 nM.

For `Cn1nc(N2CCC(=O)NC2=O)c2ccc(C3CCN(C[C@@H]4CCCN(c5cccc(S(=O)(=O)N6CCC(Nc7ncc(OC(F)F)cn7)CC6)c5)C4)CC3)cc21` [Example 257, (S)-1-(6-(1-((1-(3-((4-((5-(difluoromethoxy)pyrimidin-2-yl)amino)piperidin-1-yl)sulfonyl)phenyl)piperidin-3-yl)methyl)piperidin-4-yl)-1-methyl-1H-indazol-3-yl)dihydropyrimidine-2,4(1H,3H)-dione], the IC50 lay in the range of 100 to 500 nM.

`Cn1nc(N2CCC(=O)NC2=O)c2ccc(C3CCN(CCOc4cccc(S(=O)(=O)N5CCC(Nc6ncc(Cl)cn6)CC5)c4)CC3)cc21` [Example 124, 1-(6-(1-(2-(3-((4-((5-chloropyrimidin-2-yl)amino)piperidin-1-yl)sulfonyl)phenoxy)-ethyl)piperidin-4-yl)-1-methyl-1H-indazol-3-yl)dihydropyrimidine-2,4(1H,3H)-dione]: the IC50 was 1 to 100 nM.

As to `O=C1CCC(N2C(=O)c3cc(F)c(N4CCN(Cc5cccc(S(=O)(=O)N6CCC(Nc7ncc(Cl)cn7)CC6)c5)CC4)cc3C2=O)C(=O)N1` (stereo not drawn) [Example 22, 5-(4-(3-((4-((5-chloropyrimidin-2-yl)amino)piperidin-1-yl)sulfonyl)benzyl)-piperazin-1-yl)-2-(2,6-dioxopiperidin-3-yl)-6-fluoroisoindoline-1,3-dione], the IC50 was 500 to 2500 nM.
